Results published in ChEMBL document CHEMBL1148047, “Two steroidal alkaloids from a sponge, Corticium sp” (J Nat Prod, 1994).
In brackets after ≈: the same amount, converted by molar mass.

Experiments:
[1] = tested on: P388; test: Cytotoxicity against mouse P388 cells; type: functional, cell-based
[2] = tested on: A549; test: Cytotoxicity against human A549 cells; type: functional, cell-based
[3] = tested on: HT-29; test: Cytotoxicity against human HT-29 cells; type: functional, cell-based
[4] = tested on: SK-MEL-28; test: Cytotoxicity against human SK-MEL-28 cells; type: functional, cell-based
[5] = tested on: Lymphocyte; test: Immunomodulatory activity against lymphocytes by mixed lymphocyte reaction method; type: functional
[6] = tested on: Bacillus subtilis; test: Antimicrobial activity against Bacillus subtilis at 50 ug/disk; type: functional; conditions: read-out: IZ
[7] = tested on: Candida albicans; test: Antimicrobial activity against Candida albicans at 50 ug/disk; type: functional; conditions: read-out: IZ
[8] = tested on: Lymphocyte; test: Immunomodulatory activity against lymphocytes by lymphocyte viability assay; type: functional
[9] = tested on: Lymphocyte; test: Ratio of immunomodulatory activity against lymphocytes by lymphocyte viability assay to immunomodulatory activity against lymphocytes by mixed lymphocyte reaction method; type: functional

SMILES | IC50 [1] [µg/mL] | IC50 [2] [µg/mL] | IC50 [3] [µg/mL] | IC50 [4] [µg/mL] | Activity [5] | zone of inhibition at 50 µg/disc [6] [mm] | zone of inhibition at 50 µg/disc [7] [mm] | Activity [8] | Ratio IC50 [9]
CC(=O)N[C@H]1CC[C@]2(C)[C@H]3CC[C@]4(C)[C@@H]([C@H](C)CC5=NCCC5=C(C)C)CC[C@H]4C3=CC[C@H]2[C@H]1O [LOKYSTEROLAMINE B] | 1 (≈ 2.08 µM) | 0.5 (≈ 1.04 µM) | 1 (≈ 2.08 µM) | > 2 | 0.48 | 8 | 0 | >12.5 | 
CC(C)=C1CCN=C1C[C@@H](C)[C@H]1CC[C@H]2C3=CC[C@H]4[C@@H](O)[C@@H](N(C)C)CC[C@]4(C)[C@H]3CC[C@]12C [LOKYSTEROLAMINE A] | 0.5 (≈ 1.07 µM) | 0.5 (≈ 1.07 µM) | 1 (≈ 2.14 µM) | 5 (≈ 10.7 µM) | 0.13 | 19 | 11 | >25 | >187
